In US12558353B2 (CELLTAXIS, LLC, priority 2018, dated 2026):

Tests used:
[1] = in vivo; cited from earlier work
[2] = system: adult patients with cystic fibrosis; experiment: EMPIRE-CF Phase II randomized placebo-controlled trial: pulmonary exacerbations; format: in vivo, human; conditions: for adjusted mean (95% CI) annualized pulmonary exacerbation rate: all lung disease phenotypes; for adjusted mean (95% CI) annualized pulmonary exacerbation rate / proportion of patients who did not experience a pulmonary exacerbation during the study period: 48 weeks; for patients who did not have a pulmonary exacerbation during the study: baseline FEV1pp>75% (mild disease)
Source text: EMPIRE-CF was a Phase II multicenter, randomized, double-blind, placebo-controlled, parallel-group study to evaluate the efficacy and safety of acebilustat in adult patients with CF (NCT02443688). The study consisted of a 48-week treatment period and follow-up visit 4 weeks after treatment completion. Screening visits occurred up to 21 days prior to the first study drug dose (FIG. 2).
Patients were enrolled from 69 centers in the USA, Canada, and Europe. All centers were experienced in CF care and the conduct of clinical trials. In brief, adult women and men 18-30 years old with a documented diagnosis of CF, an FEV1pp≥50% at screening and at least one pulmonary exacerbation in the previous year were enrolled. Baseline demographics are presented in the section below.
Patients were randomized 1:1:1 to receive either once-daily oral acebilustat 50 mg or 100 mg (Celtaxsys, Atlanta, GA, USA), or placebo supplied as capsules. The two acebilustat doses were selected based on the levels of reduction of serum LTB4 production seen in Phase I studies.
Pulmonary exacerbations were defined as the requirement for oral, inhaled or intravenous antibiotics for four or more signs or symptoms according to the modified Fuch's criteria (change in sputum; new or increased hemoptysis; increased cough; increased dyspnea; malaise, fatigue or lethargy; temperature >38° C.; anorexia or weight loss; sinus pain or tenderness; change in sinus discharge; change in physical examination of the chest; ≥10% absolute decrease in FEV1pp from the previously recorded value; radiographic changes indicative of pulmonary infection) [Fuchs et al., 1994], referred collectively (antibiotics plus the four or more signs and symptoms) as expanded Fuchs criteria. The date the pulmonary exacerbation began was defined as the first day of antibiotic use.
(§1) Pulmonary exacerbations were analyzed both as the time to first pulmonary exacerbation and the rate of pulmonary exacerbations. The time to first protocol defined-pulmonary exacerbation were analyzed using a Cox proportional hazards model. The number of protocol-defined pulmonary exacerbations reported through the Week 48/Early Termination visit were annualized (where a year was defined as 52 weeks) analyzed using a negative binomial regression. The two active doses were compared to placebo individually as well as pooled together using a contrast statement similar to that used for the primary analysis. Point estimates, standard errors, and 95% CIs for the mean of number of pulmonary exacerbations were presented. The difference in means between each CTX-4430 group from placebo were presented along with standard errors and 95% CIs. Spirometry-based endpoints were analyzed using the same methods as the primary endpoint. Analyses of sputum DNA and elastase and serum high-sensitivity C-reactive protein were based upon descriptive statistics by treatment group.
The annual rate of pulmonary exacerbations was calculated by standard methods for each treatment group.

[3] = system: sputum neutrophil elastase, sputum neutrophil DNA, serum high-sensitivity C-reactive protein; experiment: EMPIRE-CF: biomarkers (sputum DNA and elastase, serum hs-CRP); format: in vivo, human; conditions: compared with reductions seen in phase 1 trial
Experimental: as §1

LTB4 production = conditions: cited from earlier work
[4] = 100 mg dose, baseline FEV1pp>75%, FAP
[5] = FEV1pp greater than 75 and concomitant CFTR modulator therapy
[6] = FEV1pp>75 at baseline, 100 mg dose
[7] = acebilustat-treated patients overall, analysis population not given
[8] = baseline FEV1pp>75%, FAP, 50 mg
[9] = baseline FEV1pp>75%, FAP, 100 mg
[10] = concomitant CFTR modulator therapy, 100 mg dose

## O=C(O)c1ccc(CN2C[C@@H]3C[C@H]2CN3Cc2ccc(Oc3ccc(-c4ncco4)cc3)cc2)cc1 [acebilustat, 4-{[(1S,4S)-5-({4-[4-oxazol-2-yl-phenoxy]phenyl}methyl)-2,5-diazabicyclo[2.2.1]heptan-2-yl]methyl}benzoic acid]
[1]
  AUC0-24 at steady state, fed vs fasting: no differences
  Cmax or AUC0-24, healthy volunteers versus patients with CF: No significant differences
[2]; [4]
  rate of pulmonary exacerbations requiring hospitalization as compared to placebo: lower rate
  rate of pulmonary exacerbations requiring intravenous antibiotics as compared to placebo: lower the rate
[2]; Baseline ppFEV1 >60, 50 mg
  Annualized Rate of Pulmonary Exacerbation (Adjusted Mean): 1.44
  Annualized Rate of Pulmonary Exacerbation, % difference from Placebo: −2%
[2]; Baseline ppFEV1 >60, 100 mg
  Annualized Rate of Pulmonary Exacerbation (Adjusted Mean): 1.27
  Annualized Rate of Pulmonary Exacerbation, % difference from Placebo: −14%
[2]; Baseline ppFEV1 >65, 50 mg
  Annualized Rate of Pulmonary Exacerbation (Adjusted Mean): 1.25
  Annualized Rate of Pulmonary Exacerbation, % difference from Placebo: −14%
[2]; Baseline ppFEV1 >65, 100 mg
  Annualized Rate of Pulmonary Exacerbation (Adjusted Mean): 1.05
  Annualized Rate of Pulmonary Exacerbation, % difference from Placebo: −28%
[2]; Baseline ppFEV1 >68, 50 mg
  Annualized Rate of Pulmonary Exacerbation (Adjusted Mean): 1.12
  Annualized Rate of Pulmonary Exacerbation, % difference from Placebo: −7%
[2]; Baseline ppFEV1 >68, 100 mg
  Annualized Rate of Pulmonary Exacerbation (Adjusted Mean): 0.81
  Annualized Rate of Pulmonary Exacerbation, % difference from Placebo: −33%
[2]; Baseline ppFEV1 >70, 50 mg
  Annualized Rate of Pulmonary Exacerbation (Adjusted Mean): 1.2
  Annualized Rate of Pulmonary Exacerbation, % difference from Placebo: −22%
[2]; Baseline ppFEV1 >70, 100 mg
  Annualized Rate of Pulmonary Exacerbation (Adjusted Mean): 0.92
  Annualized Rate of Pulmonary Exacerbation, % difference from Placebo: −40%
[2]; Baseline ppFEV1 >75, 50 mg
  Annualized Rate of Pulmonary Exacerbation (Adjusted Mean): 1.28
  Annualized Rate of Pulmonary Exacerbation, % difference from Placebo: −20%
[2]; Baseline ppFEV1 >75, 100 mg
  Annualized Rate of Pulmonary Exacerbation (Adjusted Mean): 0.84
  Annualized Rate of Pulmonary Exacerbation, % difference from Placebo: −48%
[2]; FAP and PP analysis
  time at which divergence in pulmonary exacerbation from placebo occurred: approximately 4 months
[2]; FAP, 50 mg once daily oral
  adjusted mean (95% CI) annualized pulmonary exacerbation rate: 1.46 (1.13, 1.89)
[2]; FAP, 100 mg once daily oral
  adjusted mean (95% CI) annualized pulmonary exacerbation rate: 1.57 (1.22, 2.02)
[2]; FAP, combined acebilustat groups
  adjusted mean (95% CI) annualized pulmonary exacerbation rate: 1.51 (1.26, 1.81)
[2]; FAP, 50 mg
  time to first pulmonary exacerbation, hazard ratio versus placebo (95% CI): 0.86 (0.563, 1.308)
  proportion of patients who did not experience a pulmonary exacerbation during the study period: 39%
[2]; FAP, 100 mg
  time to first pulmonary exacerbation, hazard ratio versus placebo (95% CI): 0.88 (0.576, 1.339)
  proportion of patients who did not experience a pulmonary exacerbation during the study period: 38%
[2]; FAP, acebilustat combined group
  time to first pulmonary exacerbation, hazard ratio versus placebo (95% CI): 0.87 (0.605, 1.246)
[2]; FAP, combined acebilustat dose group
  proportion of patients who did not experience a pulmonary exacerbation during the study period: 38%
[2]; FEV1 at or below 75% (≤75%)
  response to acebilustat treatment (rate of exacerbations, hazard ratio): did not exhibit the same level of response
[2]; [5]
  decrease in the rate of pulmonary exacerbations versus placebo: 54%
  higher proportion of patients exacerbation free at 48 weeks versus placebo: 165%
[2]; FEV1pp greater than 75 and concomitant CFTR modulator therapy, 100 mg dose
  decrease in the rate of pulmonary exacerbations versus placebo: 65%
[2]; [6]
  higher proportion of patients exacerbation free after 48 weeks of treatment versus placebo: 100%
  reduction in PEx rate versus placebo: 48%
  reduction in risk of experiencing first exacerbation versus placebo: 48%
[2]; [7]
  more patients with no PEx during the study compared with placebo: 32%
  reduced risk in progressing to first PEx versus placebo: 22%
  reduction in PEx versus placebo: 18%
[2]; baseline FEV1pp at or below the median (≤68%)
  response to acebilustat treatment (rate of pulmonary exacerbations): did not exhibit the same level of response
[2]; baseline FEV1pp higher than the median (>68%)
  annual rate of pulmonary exacerbations versus placebo: lower annual rate of pulmonary exacerbations versus placebo
[2]; 50 mg
  patients who did not have a pulmonary exacerbation during the study: 48%
[2]; 100 mg
  patients who did not have a pulmonary exacerbation during the study: 50%
[2]; combined acebilustat group
  patients who did not have a pulmonary exacerbation during the study: 49%
[2]; [8]
  adjusted mean (95% CI) annualized rate of pulmonary exacerbations: 1.28 (0.84, 1.96)
  time to first pulmonary exacerbation, hazard ratio (95% CI) versus placebo: 0.62 (0.304, 1.274)
[2]; [9]
  adjusted mean (95% CI) annualized rate of pulmonary exacerbations: 0.84 (0.49, 1.44)
  time to first pulmonary exacerbation, hazard ratio (95% CI) versus placebo: 0.52 (0.245, 1.101)
[2]; baseline FEV1pp>75%, FAP, acebilustat combined group
  time to first pulmonary exacerbation, hazard ratio (95% CI) versus placebo: 0.57 (0.307, 1.051)
[2]; baseline FEV1pp>75%, FAP, combined acebilustat groups
  adjusted mean (95% CI) annualized rate of pulmonary exacerbations: 1.04 (0.74, 1.46)
[2]; concomitant CFTR modulator therapy, regardless of disease severity, 100 mg dose
  reduction in rate of PEx versus CFTR modulators and placebo: 14%
[2]; [10]
  higher proportion of patients with no exacerbations versus CFTR modulators and placebo: 51%
  increased time to first exacerbation versus CFTR modulators and placebo: 27%
[2]; patients off CFTR modulator therapy
  higher percentage of patients that were exacerbation free: about 15%
[3]
  sputum neutrophil elastase, sputum neutrophil DNA and serum hs-CRP versus placebo: did not observe similar changes
LTB4 production; 50 mg dose
  peak reduction in LTB4 production: ~75%
LTB4 production; 100 mg dose, near-maximum
  reduction of serum LTB4 production: 86%
